{
  "source": "patent US8492346B2",
  "about": "“Methods of use of epsilon inhibitor compounds for the attenuation of pain” (KAI Pharmaceuticals, Inc., priority 2007, dated 2013)",
  "key": {"[1]": {"test": "Plasma stability in human sera", "format": "in vitro ADME", "settings": "for remaining at 0.5 h: plasma, human sera, 30 minutes", "protocol": "(§1) The plasma and chemical stability of various cargo/carrier peptide constructs described in Example 1 was tested. Plasma stability of the compounds was tested using both human and rat sera and the amount of starting material was determined after 30 minutes of treatment. Chemical stability was evaluated by determining the amount of starting material remaining after 9 days of treatment.\n(§2) The plasma stability of various cargo/carrier peptide constructs described in Example 1 was tested using both human and rat sera and the amount of starting material was determined over time to 30 minutes of treatment. The time course data for cargo/carrier peptides KP-1586, KP-1630, and KP-1631 is shown in FIG. 3, the data for peptides KP-1632, KP-1633, and KP-1634 is shown in FIG. 4, and the data for peptides KP-1635, KP-1636, and KP-1637 is shown in FIG. 5."}, "[2]": {"test": "Plasma stability in rat sera", "format": "in vitro ADME", "settings": "30 minutes", "protocol": "as §1, §2"}, "[3]": {"test": "Chemical stability of cargo/carrier peptide constructs", "format": "physicochemical", "settings": "9 days of treatment", "protocol": "as §1\nThe chemical stability of various cargo/carrier peptide constructs described in Example 1 was tested by examining the relative concentration of the peptides over a time period of more than 200 hours at 37° C."}, "[4]": {"test_system": "carrageenan-induced mechanical hyperalgesia", "test": "Carrageenan inflammatory pain model, Randall-Selitto paw-withdrawal test", "format": "in vivo, rat", "protocol": "(§3) The nociceptive flexior reflex was quantified on lightly restrained rats by using a Basile Analgesymeter (Randall-Selitto test). Inflammatory hyperlagesia was induced by injection of Carr (1%, 5 uL, i.d.), which was injected unilaterally to the dorsum of the hindpaw one-hour prior to compound administration. The εPKC inhibitor peptide (εV1-2) was injected via systemic routes.\nas §3, with “μL,” for “uL,”, “one-hr” for “one-hour”\nThe rat carrageenan model has been extensively used to evaluate the response to modulators of inflammatory pain. In the model used for the studies described below, a single 5 microL injection of a 1% solution of carrageenan into the plantar surface of the right hindpaw was used to elicit an inflammatory response resulting in local edema and mechanical hyperalgesia. The mechanical hyperalgesia was quantitated as previously described using measurements of the nociceptive flexion reflex (Randall-Selitto paw-withdrawal test) in response to mechanical painful stimulation at the site of carrageenan injection. […] In the absence of further treatment, the PWT remained stable at ˜55 g for several hours, making it possible to use this model to evaluate the time-course of the response to treatment over the course of at least six hours after the establishment of the disease state."}},
  "data": [
    {"compound": "CC(=O)N[C@@H](CSSC[C@H](N)C(=O)N[C@@H](CCC(=O)O)C(=O)N[C@@H](C)C(=O)N[C@H](C(=O)N[C@@H](CO)C(=O)N[C@@H](CC(C)C)C(=O)N[C@@H](CCCCN)C(=O)N1CCC[C@H]1C(=O)N[C@H](C(=O)O)[C@@H](C)O)C(C)C)C(=O)N[C@@H](Cc1ccc(O)cc1)C(=O)NCC(=O)N[C@@H](CCCNC(=N)N)C(=O)N[C@@H](CCCCN)C(=O)N[C@@H](CCCCN)C(=O)N[C@@H](CCCNC(=N)N)C(=O)N[C@@H](CCCNC(=N)N)C(=O)N[C@@H](CCC(N)=O)C(=O)N[C@@H](CCCNC(=N)N)C(=O)N[C@@H](CCCNC(=N)N)C(=O)N[C@@H](CCCNC(=N)N)C(N)=O", "note": "[KP-1586, C-E-A-V-S-L-K-P-T]", "values": [
      {"measurement": "remaining at 0.5 h", "setting": "[1]", "value": 85, "unit": "%"},
      {"measurement": "remaining at 0.5 h", "setting": "[2]", "value": 77, "unit": "%"},
      {"measurement": "remaining at 216 h", "setting": "[3]", "value": 57, "unit": "%"}
    ]},
    {"compound": "CC(=O)N[C@@H](CSSC[C@H](NC(C)=O)C(=O)N[C@@H](CCC(=O)O)C(=O)N[C@@H](C)C(=O)N[C@H](C(=O)N[C@@H](CO)C(=O)N[C@@H](CC(C)C)C(=O)N[C@@H](CCCCN)C(=O)N1CCC[C@H]1C(=O)N[C@H](C(N)=O)[C@@H](C)O)C(C)C)C(=O)N[C@@H](Cc1ccc(O)cc1)C(=O)NCC(=O)N[C@@H](CCCNC(=N)N)C(=O)N[C@@H](CCCCN)C(=O)N[C@@H](CCCCN)C(=O)N[C@@H](CCCNC(=N)N)C(=O)N[C@@H](CCCNC(=N)N)C(=O)N[C@@H](CCC(N)=O)C(=O)N[C@@H](CCCNC(=N)N)C(=O)N[C@@H](CCCNC(=N)N)C(=O)N[C@@H](CCCNC(=N)N)C(N)=O", "note": "[KP-1630, Ac-C-E-A-V-S-L-K-P-T-NH2]", "values": [
      {"measurement": "Plasma stability, time course to 30 minutes", "setting": "[1]; human and rat sera, FIGS. 3-5", "value": "little impact on plasma stability"},
      {"measurement": "remaining at 0.5 h", "setting": "[1]", "value": 76, "unit": "%"},
      {"measurement": "remaining at 0.5 h", "setting": "[2]", "value": 77, "unit": "%"},
      {"measurement": "remaining at 216 h", "setting": "[3]", "value": 67, "unit": "%"}
    ]},
    {"compound": "CC(=O)N[C@@H](CSSC[C@H](NC(C)=O)C(=O)N[C@@H](CC(C)C)C(=O)N[C@@H](CCCCN)C(=O)N1CCC[C@H]1C(=O)N[C@H](C(=O)N[C@@H](C)C(=O)N[C@@H](Cc1c[nH]c2ccccc12)C(=O)N[C@@H](CO)C(=O)N[C@@H](CC(C)C)C(=O)N[C@@H](CCCNC(=N)N)C(N)=O)[C@@H](C)O)C(=O)N[C@@H](Cc1ccc(O)cc1)C(=O)NCC(=O)N[C@@H](CCCNC(=N)N)C(=O)N[C@@H](CCCCN)C(=O)N[C@@H](CCCCN)C(=O)N[C@@H](CCCNC(=N)N)C(=O)N[C@@H](CCCNC(=N)N)C(=O)N[C@@H](CCC(N)=O)C(=O)N[C@@H](CCCNC(=N)N)C(=O)N[C@@H](CCCNC(=N)N)C(=O)N[C@@H](CCCNC(=N)N)C(N)=O", "note": "[KP-1631, Ac-C-L-K-P-T-A-W-S-L-R-NH2]", "values": [
      {"measurement": "remaining at 0.5 h", "setting": "[1]", "value": 49, "unit": "%"},
      {"measurement": "remaining at 0.5 h", "setting": "[2]", "value": 67, "unit": "%"},
      {"measurement": "remaining at 216 h", "setting": "[3]", "value": 76, "unit": "%"}
    ]},
    {"compound": "CC(=O)N[C@@H](CCSSCC[C@H](NC(C)=O)C(=O)N[C@@H](CCC(=O)O)C(=O)N[C@@H](C)C(=O)N[C@H](C(=O)N[C@@H](CO)C(=O)N[C@@H](CC(C)C)C(=O)N[C@@H](CCCCN)C(=O)N1CCC[C@H]1C(=O)N[C@H](C(N)=O)[C@@H](C)O)C(C)C)C(=O)N[C@@H](Cc1ccc(O)cc1)C(=O)NCC(=O)N[C@@H](CCCNC(=N)N)C(=O)N[C@@H](CCCCN)C(=O)N[C@@H](CCCCN)C(=O)N[C@@H](CCCNC(=N)N)C(=O)N[C@@H](CCCNC(=N)N)C(=O)N[C@@H](CCC(N)=O)C(=O)N[C@@H](CCCNC(=N)N)C(=O)N[C@@H](CCCNC(=N)N)C(=O)N[C@@H](CCCNC(=N)N)C(=O)O", "note": "[KP-1638, Ac-hC-E-A-V-S-L-K-P-T-NH2]", "values": [
      {"measurement": "remaining at 216 h", "setting": "[3]", "value": 100, "unit": "%"}
    ]},
    {"compound": "COc1ccc2c(c1)c(CC(=O)O)c(C)n2C(=O)c1ccc(Cl)cc1", "note": "[indomethacin, reference compound]", "values": [
      {"measurement": "Carrageenan-induced mechanical hyperalgesia", "setting": "[4]; oral, 10 mg/kg, after end of 5-hr IV infusion of KAI-1678", "value": "completely reversed the mechanical hyperalgesia"}
    ]},
    {"compound": "E-A-V-S-L-K-P-T (EAVSLKPT) [εV1-2]", "values": [
      {"measurement": "Anti-hyperalgesic effect after surgical sympathectomy", "setting": "[4]; bilateral lumbar sympathectomy plus suprarenal ganglionectomy 7 days before", "value": "completely abolished anti-hyperalgesic effects"},
      {"measurement": "Paw-withdrawal threshold (PWT)", "setting": "[4]; intradermal and subcutaneous injection, FIG. 14", "value": "Increases in paw-withdrawal threshold (PWT)"},
      {"measurement": "Carr-induced mechanical hyperalgesia", "setting": "[4]; subcutaneous injection, ipsilateral or contralateral hindlimb or dorsal trunk", "value": "dose-dependently suppressed Carr-induced mechanical hyperalgesia"},
      {"measurement": "Carr-induced mechanical hyperalgesia after nerve transection", "setting": "[4]; subcutaneous, distal to transection of sciatic and saphenous nerves, contralateral paw", "value": "no longer suppression of Carr-induced mechanical hyperalgesia"}
    ]}
  ]
}
